Legend:
[1] = molecular target: T1, Carboxylesterase (Laodelphax striatella) (UniProt K4JRP7); assay: Activity of aliesterase in Laodelphax striatella Ibaraki (small brown planthopper) homogenate assessed per 10 min per ug protein after 10 min by van Asperen method; settings: Laodelphax striatellus
T1 sequence (whole entry): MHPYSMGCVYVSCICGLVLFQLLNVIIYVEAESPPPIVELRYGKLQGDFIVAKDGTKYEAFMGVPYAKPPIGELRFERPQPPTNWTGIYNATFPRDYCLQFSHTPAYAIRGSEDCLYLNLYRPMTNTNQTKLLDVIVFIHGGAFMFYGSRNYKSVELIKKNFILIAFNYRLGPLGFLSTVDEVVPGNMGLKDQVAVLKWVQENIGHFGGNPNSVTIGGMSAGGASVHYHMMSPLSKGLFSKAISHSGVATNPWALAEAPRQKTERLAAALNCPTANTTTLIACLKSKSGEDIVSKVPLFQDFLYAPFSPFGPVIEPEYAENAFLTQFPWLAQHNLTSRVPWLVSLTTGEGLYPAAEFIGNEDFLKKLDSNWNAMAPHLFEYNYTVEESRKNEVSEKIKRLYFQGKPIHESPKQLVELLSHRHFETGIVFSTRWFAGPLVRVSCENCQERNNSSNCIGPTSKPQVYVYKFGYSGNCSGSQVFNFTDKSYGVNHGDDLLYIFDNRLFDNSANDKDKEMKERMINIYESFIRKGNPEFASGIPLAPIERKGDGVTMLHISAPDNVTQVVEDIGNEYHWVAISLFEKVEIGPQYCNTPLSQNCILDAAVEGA

[2] = molecular target: T1, Carboxylesterase (Laodelphax striatella); assay: Activity of aliesterase in Laodelphax striatella Kumamoto (small brown planthopper) homogenate assessed per 10 min per ug protein after 10 min by van Asperen method; settings: Laodelphax striatellus
[3] = molecular target: T1, Carboxylesterase (Laodelphax striatella); assay: Activity of aliesterase in susceptible Laodelphax striatella (small brown planthopper) homogenate assessed per 10 min per ug protein after 10 min by van Asperen method; settings: Laodelphax striatellus
[4] = molecular target: T1, Carboxylesterase (Laodelphax striatella); assay: Ratio of activity of aliesterase in Laodelphax striatella Ibaraki (small brown planthopper) homogenate to activity of aliesterase in susceptible Laodelphax striatella homogenate; settings: Laodelphax striatellus
[5] = molecular target: T1, Carboxylesterase (Laodelphax striatella); assay: Ratio of activity of aliesterase in Laodelphax striatella Kumamoto (small brown planthopper) homogenate to activity of aliesterase in susceptible Laodelphax striatella homogenate; settings: Laodelphax striatellus
Acetylcholinesterase [6] = molecular target: T2, Acetylcholinesterase (Laodelphax striatella, UniProt K4JQ36); assay: Inhibition of acetylcholinesterase in Laodelphax striatella Ibaraki (small brown planthopper) homogenate preincubated for 10 min before substrate addition measured after 10 min by Ellman method; parameters: species or system Laodelphax striatellus; settings: read-out: I50
Acetylcholinesterase [7] = molecular target: T2, Acetylcholinesterase; assay: Inhibition of acetylcholinesterase in Laodelphax striatella Kumamoto (small brown planthopper) homogenate preincubated for 10 min before substrate addition measured after 10 min by Ellman method; parameters: species or system Laodelphax striatellus; settings: read-out: I50
Acetylcholinesterase [8] = molecular target: T2, Acetylcholinesterase; assay: Inhibition of acetylcholinesterase in susceptible Laodelphax striatella (small brown planthopper) homogenate preincubated for 10 min before substrate addition measured after 10 min by Ellman method; parameters: species or system Laodelphax striatellus; settings: read-out: I50
Laodelphax striatellus [9] = assay: Insecticidal activity against Laodelphax striatella Ibaraki (small brown planthopper) assessed as mortality compound treated topically on dorsal side; settings: topical
Laodelphax striatellus [10] = assay: Insecticidal activity against Laodelphax striatella Kumamoto (small brown planthopper) assessed as mortality compound treated topically on dorsal side; settings: topical
Laodelphax striatellus [11] = assay: Insecticidal activity against susceptible Laodelphax striatella (small brown planthopper) assessed as mortality compound treated topically on dorsal side; type: functional; settings: topical
Laodelphax striatellus [12] = assay: Ratio of LD50 for Laodelphax striatella Ibaraki (small brown planthopper) to LD50 for susceptible Laodelphax striatella; type: functional
Laodelphax striatellus [13] = assay: Ratio of LD50 for Laodelphax striatella Kumamoto (small brown planthopper) to LD50 for susceptible Laodelphax striatella; type: functional
[14] = molecular target: Acetylcholinesterase (Laodelphax striatella) (UniProt K4JQ36); assay: Ratio of I50 of acetylcholinesterase in Laodelphax striatella Ibaraki (small brown planthopper) homogenate to I50 for acetylcholinesterase in susceptible Laodelphax striatella homogenate; settings: Laodelphax striatellus
[15] = molecular target: Acetylcholinesterase (Laodelphax striatella) (UniProt K4JQ36); assay: Ratio of I50 of acetylcholinesterase in Laodelphax striatella Kumamoto (small brown planthopper) homogenate to I50 for acetylcholinesterase in susceptible Laodelphax striatella homogenate; settings: Laodelphax striatellus

T2 sequence (K4JQ36 whole entry): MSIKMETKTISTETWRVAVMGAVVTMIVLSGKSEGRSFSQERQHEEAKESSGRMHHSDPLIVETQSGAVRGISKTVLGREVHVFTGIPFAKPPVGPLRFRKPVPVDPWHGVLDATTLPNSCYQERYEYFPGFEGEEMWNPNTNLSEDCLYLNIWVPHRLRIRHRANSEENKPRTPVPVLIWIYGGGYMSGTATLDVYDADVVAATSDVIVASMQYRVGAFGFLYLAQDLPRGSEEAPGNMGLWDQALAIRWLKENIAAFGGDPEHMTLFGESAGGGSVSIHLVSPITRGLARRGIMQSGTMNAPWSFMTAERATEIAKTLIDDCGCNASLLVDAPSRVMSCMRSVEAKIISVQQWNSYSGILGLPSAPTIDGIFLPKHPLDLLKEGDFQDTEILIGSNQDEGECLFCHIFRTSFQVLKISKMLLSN
Chain of Acetylcholinesterase (Laodelphax striatella) (K4JQ36 1-426): as the sequence (K4JQ36 whole entry) above

Row | SMILES | IC50 (Acetylcholinesterase [6]) | IC50 (Acetylcholinesterase [7]) | IC50 (Acetylcholinesterase [8]) | LD50 (Laodelphax striatellus [9]) | LD50 (Laodelphax striatellus [10]) | LD50 (Laodelphax striatellus [11]) | Ratio (Laodelphax striatellus [12]) | Ratio (Laodelphax striatellus [13]) | other results
1 | CC(=O)Oc1cccc2ccccc12 |  |  |  |  |  |  |  |  | Activity [1]: 27 nmol; Activity [2]: 29 nmol; Activity [3]: 6.6 nmol; Ratio [4]: 4.1; Ratio [5]: 4.3
2 | CNC(=O)Oc1cccc2ccccc12 [CARBARIL] | 48 nM | 310 nM | 48 nM |  |  |  |  |  | 
3 | CNC(=O)Oc1cccc2c1OC(C)(C)C2 [CARBOFURAN] |  |  |  | 1.7 mg/kg | 20 mg/kg | 0.51 mg/kg | 3.3 | 39 | 
4 | CCCCN(CCCC)SN(C)C(=O)Oc1cccc2c1OC(C)(C)C2 [CARBOSULFAN] |  |  |  |  | 42 mg/kg | 2.2 mg/kg |  | 19 | 
5 | CCOP(=O)(OCC)Oc1cc(C)nc(C(C)C)n1 [DIAZOXON] | 190 nM | 400 nM | 170 nM |  |  |  |  |  | Ratio [14]: 1.1; Ratio [15]: 2.4
6 | CCOP(=S)(OCC)Oc1cc(C)nc(C(C)C)n1 [DIMPYLATE] |  |  |  | 28 mg/kg | 74 mg/kg | 8.5 mg/kg | 3.3 | 8.7 | 
7 | CCOc1ccc(C(C)(C)COCc2cccc(Oc3ccccc3)c2)cc1 [ETOFENPROX] |  |  |  | 1.7 mg/kg | 2.7 mg/kg | 1.6 mg/kg | 1.1 | 1.7 | 
8 | COP(=S)(OC)Oc1ccc([N+](=O)[O-])c(C)c1 [FENITROTHION] |  |  |  | 27 mg/kg | 38 mg/kg | 6.4 mg/kg | 4.2 | 5.9 | 
9 | COP(=O)(OC)Oc1ccc([N+](=O)[O-])c(C)c1 [FENITROXON] | 360 nM | 730 nM | 350 nM |  |  |  |  |  | Ratio [14]: 1; Ratio [15]: 2.1
10 | CCC(C)c1ccccc1OC(=O)NC (centres undefined) [FENOBUCARB] | 26 nM | 140 nM | 29 nM | 33 mg/kg | 320 mg/kg | 18 mg/kg | 1.8 | 18 | Ratio [14]: 0.9; Ratio [15]: 4.8
11 | CC(C)C(C(=O)OC(C#N)c1cccc(Oc2ccccc2)c1)c1ccc(Cl)cc1 (centres undefined) [FENVALERATE] |  |  |  | 1.9 mg/kg |  | 1.4 mg/kg | 1.4 |  | 
12 | O=[N+]([O-])/N=C1\NCCN1Cc1ccc(Cl)nc1 [IMIDACLOPRID] |  |  |  | 0.26 mg/kg | 0.61 mg/kg | 0.26 mg/kg | 1 | 2.3 | 
13 | CCOC(=O)CC(SP(=S)(OC)OC)C(=O)OCC (centres undefined) [MALATHION] |  |  |  | 130 mg/kg | 380 mg/kg | 22 mg/kg | 5.9 | 17 | 
